Laboratory results taken from US20230295212A1 (ROME Therapeutics, Inc., priority 2022, published 2023).

Tests used:
[1] = molecular target: T1, LINE1 reverse transcriptase (Homo sapiens, UniProt O00370); test: Stable artificial-intron Cis LINE1 reporter assay (HeLa Tet-On 3G, Firefly luciferase); format: cell-based; details: HeLa L1 artificial-intron reporter cells, doxycycline 500 ng/mL, 72 h, class symbols
T1 construct: expressed in transfected cells; host or cells: HeLa Tet-On 3G (Takara, cat no 631183)
T1 sequence (O00370 whole entry, looked up): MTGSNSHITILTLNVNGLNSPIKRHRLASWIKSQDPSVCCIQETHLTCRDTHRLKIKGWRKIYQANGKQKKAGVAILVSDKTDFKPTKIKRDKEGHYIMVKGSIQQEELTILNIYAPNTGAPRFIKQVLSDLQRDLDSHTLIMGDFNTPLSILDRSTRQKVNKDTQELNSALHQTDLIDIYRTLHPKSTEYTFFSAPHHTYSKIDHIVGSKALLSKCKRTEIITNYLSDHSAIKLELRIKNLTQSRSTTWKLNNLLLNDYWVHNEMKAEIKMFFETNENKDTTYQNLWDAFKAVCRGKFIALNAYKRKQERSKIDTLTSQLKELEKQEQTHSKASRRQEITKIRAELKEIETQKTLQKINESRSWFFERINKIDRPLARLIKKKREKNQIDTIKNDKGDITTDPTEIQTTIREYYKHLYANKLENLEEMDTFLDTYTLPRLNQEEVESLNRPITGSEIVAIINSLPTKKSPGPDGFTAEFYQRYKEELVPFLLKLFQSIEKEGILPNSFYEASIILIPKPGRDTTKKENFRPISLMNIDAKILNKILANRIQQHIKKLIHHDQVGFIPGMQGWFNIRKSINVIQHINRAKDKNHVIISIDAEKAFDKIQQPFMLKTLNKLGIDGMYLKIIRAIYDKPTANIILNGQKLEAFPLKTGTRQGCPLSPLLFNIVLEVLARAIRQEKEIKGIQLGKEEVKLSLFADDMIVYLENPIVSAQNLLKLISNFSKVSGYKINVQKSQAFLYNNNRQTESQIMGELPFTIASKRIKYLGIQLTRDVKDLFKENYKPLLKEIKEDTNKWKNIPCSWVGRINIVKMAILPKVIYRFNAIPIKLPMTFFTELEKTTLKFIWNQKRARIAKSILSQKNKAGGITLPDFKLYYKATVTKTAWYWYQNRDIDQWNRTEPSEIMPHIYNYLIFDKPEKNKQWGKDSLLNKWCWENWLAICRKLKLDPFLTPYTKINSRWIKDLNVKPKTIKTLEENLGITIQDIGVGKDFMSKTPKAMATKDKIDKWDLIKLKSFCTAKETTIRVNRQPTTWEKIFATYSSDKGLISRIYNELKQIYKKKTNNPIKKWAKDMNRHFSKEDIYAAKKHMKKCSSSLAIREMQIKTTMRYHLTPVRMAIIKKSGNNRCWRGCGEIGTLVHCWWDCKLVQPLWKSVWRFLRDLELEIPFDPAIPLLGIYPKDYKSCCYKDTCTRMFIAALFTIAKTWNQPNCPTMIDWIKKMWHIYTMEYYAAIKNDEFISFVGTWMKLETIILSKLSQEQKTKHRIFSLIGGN
In short: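 HeLa Tet-On 3G clone stably carrying a bi-directional doxycycline-inducible artificial-intron LINE1 reporter, plated at 8,000 cells/well onto serially diluted compound. Expression induced with 500 ng/mL doxycycline (final); Firefly luciferase luminescence (Dual-Glo) read 72 h after plating as LINE1 activity.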

[2] = tested on: THP1-Dual KO-TREX1 xenograft tumors; test: Altering IFN production in THP1-Dual KO-TREX1 mouse xenografts (Compound 67); format: in vivo; details: CB-17 SCID mice, decitabine 5 mg/kg SC, compound 0.3-100 mg/kg PO once daily 5 days, tumors 4 h post-last dose
Procedure: Exemplary Compound 67 was tested for its ability to alter IFN levels in THP1-Dual™ KO-TREX1 xenografts in mice. Assay procedures are described below.
CB-17 SCID female mice were inoculated subcutaneously with 10 million THP1-Dual™ KO-TREX1 cells in 200 μl PBS with Matrigel (1:1) and grouped at N=5 per treatment per sampling timepoint when tumor volume reached an average of 340 mm^3. Six groups were co-administered: (1) decitabine (DAC) at 5 mg/kg SC, once daily, for 5 days, and (2) test compound 67 at one of six doses (0.3 mg/kg PO, 1 mg/kg PO, 3 mg/kg PO, 10 mg/kg PO, 30 mg/kg PO, 100 mg/kg PO) once daily, for 5 days. Two additional groups were administered (1) decitabine and test compound vehicle control SC+PO, once daily, for 5 days, and (2) decitabine at 5 mg/kg SC, once daily, for 5 days. […]
Tumors were harvested 4 h post-last dose administered on day 5, grinded in PBS at 50 Hz for 5 min, kept on ice for 30 min while being vortexed every 5 min. […] Equal amounts of proteins were added to 96-well black plates, and luciferase signal was measured using the QUANTI-Luc™ detection medium according to manufacturer's instructions. Luminescence was measured using the EnVision® 2105 Multimode Plate Reader.
Experimental results are depicted in FIG. 9. […] In FIG. 9, IFN signal was measured in tumors harvested from mice 4 hours after the final decitabine and test compound dosing on day 5.

[3] = tested on: phosphorylated TANK-binding kinase 1 (pTBK1); test: UVB-induced pTBK1 in HaCaT cells (ELISA); format: cell-based
Procedure: pTBK1 is an important signaling molecule in regulating inflammatory responses. HaCaT cells were plated in 6-well plates at a density of ˜100 k/well in HaCaT media (DMEM, optimized 1×(Addex Bio)^+1% pen strep (Gibco)^+5% heat inactivated fetal bovine serum (Gibco)). The cells were then cultured at 37° C. overnight. The next day, the cells were treated with the test compounds. Each test compound was diluted and added to media aliquots to provide desired concentrations. To add the test compound+media mixture, an equivalent amount of media from each well was aspirated and then replenished with the media dosed with the test compound. The cells were then cultured for an additional 72 hours with compound treatment prior to UVB exposure.
The media was then aspirated from the wells, with the remaining cells at least 80% confluent in each well. One mL of PBS was then added to each well, and the plate was then placed under a UVB lamp. A UVB sensor was positioned near the plate to register the plate's exposure. The cells were exposed to the UVB light until they reached 0.1 mJ/cm2. […]
A RIPA lysis buffer (#BP-115, Boston BioProducts) was added to a Halt protease and […] inhibitor cocktail (#78440, ThermoFisher), and the mixture was cooled on ice. […] The protein concentration of the cell lysate was measured using Pierce™ Rapid Gold BCA Protein Assay Kit #AF3225 (ThermoFisher). […]

| IC50 [1] [nM] | Structure (SMILES) | inhibition of DAC-induced IFN signal in THP1 tumors [2] | cytotoxicity, concentration [3] [µM] |
| --- | --- | --- | --- |
| ≤ 50 | Nc1nc(=O)n([C@@H]2O[C@@](CO)(CCl)[C@@H](O)[C@@H]2F)cc1F [Compound 67, 4-amino-1-[(2R,3S,4R,5R)-5-(chloromethyl)-3-fluoro-4-hydroxy-5-(hydroxymethyl)oxolan-2-yl]-5-fluoropyrimidin-2-one] | dose-response inhibition of DAC-induced IFN signal | – |
| ≤ 50 | Nc1nc(=O)n([C@H]2C[C@H](O)[C@](CO)(CCl)O2)cc1F [Compound 14, 4-amino-1-((2R,4S,5R)-5-(chloromethyl)-4-hydroxy-5-(hydroxymethyl)tetrahydrofuran-2-yl)-5-fluoropyrimidin-2(1H)-one] | – | ≥ 30 |
